Measured values from US20240226117A1, “TREATMENT OF CONGENITAL ADRENAL HYPOPLASIA” (ReveraGen BioPharma, Inc., priority 2021, published 2024).

System: DMD participants
Experiment: Prespecified safety evaluation: height percentile for age and BMI z-score
Assay type: in vivo, human
Protocol: As with the […] comparators, group-matching criteria were prespecified in the iSAP, and 2 independent statisticians carried out the participant matching. […] There was no corresponding 12-month assessment in vamorolone-treated participants. (Assessments of vamorolone-treated trial participants were 0, 3, 6, and 18 months). Standing height and weight were assessed at each study visit. Height z-score, body mass index (BMI: kg/m^2), and BMI z-score were calculated centrally. AE reporting was done per protocol in the vamorolone trials. The current study is the first to evaluate the longer-term tolerability, efficacy, and safety of vamorolone in DMD. […] Given the variable timing of dose escalations, it was prespecified that initial analyses of drug-related efficacy and safety would be limited to those participants who had 18 months of treatment with 2.0 mg/kg/day vamorolone or more (dose group C+dose group D: n=23). Outcomes for these participants were compared to a group-matched cohort from the […] over 18 months (corticosteroid-naïve, n=19: corticosteroid-treated, n=68). Participants were matched for age and treatment period (+1 month), matching criteria were prespecified in the statistical analysis plan. Two independent statisticians carried out the matching. […] Participants in the corticosteroid-treated […] group were treated for at least 18 months, but the total duration, dose, and regimens varied. Statistical analyses were done on paired longitudinal outcome data using an analysis of covariance (ANCOVA) approach with change from baseline (VBP15-002) to month 18 (midpoint of VBP15-LTE). Baseline response and age were included as covariates. For the vamorolone-treated participants, age was calculated as (date of informed consent minus birthdate)/365.25. For the DNHS participants, age was calculated as (date of baseline visit used minus birthdate)/365.25. The baseline visit for a DNHS participant was the first visit. […] Timed function tests were analyzed as velocity scores to limit the impact of participants who could not perform the test (velocity=0). Velocity measures are variance-stabilizing transformations, suppressing extreme raw outliers from raw values in seconds; these help with distributional assumptions of the statistical models/tests used. Raw data (seconds) are also reported. Velocity scores for […] (event/second), TTRW (meters/second), and […] (event/second) were inputted as 0 at the first response missing due to inability to perform the test. All other data were observed values only, without imputation. No adjustments for multiplicity on inferential statistics were specified in the iSAP.

[1] = 18 months, vamorolone 2.0 or 6.0 mg/kg/day, DNHS corticosteroid doses and regimens varied
[2] = vamorolone 18 months versus corticosteroid-naïve DNHS, ANCOVA

C[C@@H]1C[C@H]2[C@@H]3CCC4=CC(=O)C=C[C@]4(C)C3=CC[C@]2(C)[C@@]1(O)C(=O)CO [Vamorolone, 17α,21-dihydroxy-16α-methylpregna-1,4,9(11)-triene-3,20-dione]
Mean BMI z-score, 18-month value (SD) [1]: 1.46 (0.62) | Mean BMI z-score, change from baseline (SD) [1]: 0.411 (0.615) | Mean height percentile for age, 18-month value (SD) [1]: 35.24 (29.82) | Mean BMI z-score, change from baseline (SD) (18 months, vamorolone 2.0 or 6.0 mg/kg/day, DNHS corticosteroid doses and regimens varied, listed as vamorolone): 0.41 | LS Mean change in height percentiles for age (DMD children treated with vamorolone, N = 22, 18 months treatment): +6.9 | BMI change from baseline to 18 months of treatment (original dose group B (0.75 mg/kg/day, escalated in LTE)): 0.5 kg/m^2 | BMI change from baseline to 18 months of treatment (original dose group C (2.0 mg/kg/day)): 1.11 kg/m^2 | BMI change from baseline to 18 months of treatment (original dose group D (6.0 mg/kg/day)): 2.55 kg/m^2 | Mean height percentile for age, LS mean difference (SE) (vamorolone 18-month treatment versus prednisone trial 12-month treatment, ANCOVA): 10.37 | Mean BMI z-score, LS mean difference (SE) [2]: 0.899 (0.204) | Mean height percentile for age, LS mean difference (SE) [2]: 6.72 (3.48) | growth stunting (mean change in height percentile versus corticosteroid-treated DNHS) (vamorolone treatment group): no evidence of growth stunting | Mean height percentile for age, LS mean difference (SE) (vamorolone versus corticosteroid-treated DNHS, 18 months, ANCOVA): 15.86
